Data from paper PMC7830758, “Revisiting the Rate-Limiting Step of the ANS–Protein Binding at the Protein Surface and Inside the Hydrophobic Cavity” (Molecules, 2021).

Key:
lysozyme = molecular target: T1, lysozyme (Gallus gallus, UniProt P00698); test: ANS fluorescence titrated with protein, MCR-ALS scores, one-site fit; type: binding; settings: read-out: K (converted)
T1 construct: gene LYZ

[1] = molecular target: T2, bovine serum albumin (BSA) (Bos taurus, UniProt P02769); test: as above; type: binding; settings: read-out: K (converted)
T2 construct: gene ALB
T2 sequence (P02769 25-607): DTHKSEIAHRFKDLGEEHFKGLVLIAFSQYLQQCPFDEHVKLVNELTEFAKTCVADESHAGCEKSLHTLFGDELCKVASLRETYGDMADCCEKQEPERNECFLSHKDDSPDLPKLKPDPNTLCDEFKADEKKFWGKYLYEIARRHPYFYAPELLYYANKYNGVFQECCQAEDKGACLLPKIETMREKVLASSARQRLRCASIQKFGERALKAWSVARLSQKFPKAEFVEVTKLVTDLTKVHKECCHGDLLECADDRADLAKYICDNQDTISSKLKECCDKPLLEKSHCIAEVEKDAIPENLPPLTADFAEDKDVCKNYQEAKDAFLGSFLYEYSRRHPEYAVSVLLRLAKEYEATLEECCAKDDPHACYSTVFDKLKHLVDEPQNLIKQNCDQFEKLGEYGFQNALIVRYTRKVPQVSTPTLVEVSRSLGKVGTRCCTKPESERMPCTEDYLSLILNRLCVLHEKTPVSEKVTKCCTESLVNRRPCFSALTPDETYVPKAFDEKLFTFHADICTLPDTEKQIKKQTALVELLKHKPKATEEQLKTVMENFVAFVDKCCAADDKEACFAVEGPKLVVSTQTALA

T1 sequence (P00698 19-147): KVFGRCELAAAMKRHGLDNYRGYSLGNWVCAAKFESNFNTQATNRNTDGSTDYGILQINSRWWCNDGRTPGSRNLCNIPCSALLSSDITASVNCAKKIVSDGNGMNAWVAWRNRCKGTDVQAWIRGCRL

Kd (lysozyme): 172 µM | Kd [1]: 1.06 µM
SMILES: O=S(=O)(O)c1cccc2cccc(Nc3ccccc3)c12 [8-Anilino-1-naphthalenesulfonic acid]
